Experimental data as given in patent US9040713B2, “Methods of managing blood sugar levels and compositions related thereto” (EMORY UNIVERSITY, priority 2010, dated 2015).
“Also recorded” adds a separate entry of the source. Values belong to the compound of their own block, whether it stands above or below them.

Experiments:
[1] = molecular target: T1, GST-IRTK (Homo sapiens, UniProt P06213); assay: Partial proteolysis; type: binding; conditions: compound 50 μM or ATP-γ-S 5 μM; limited trypsin (or chymotrypsin) digestion
T1 construct: GST-tagged IRTK (GST-IRTK, a.a. 1011-1382); purchased Invitrogen
Method: 200 ng GST-IRTK was subjected to limited trypsin digestion in the presence or absence of 50 μM compound with 50 mM tris-HCL (pH8.2) and 20 mM CacCl2. The sample was separated on a SDS-polyacrylamide gel and stained by silver.
Several small molecules bind to the intracellular kinase domain of IR (IRTK) and provoke its activation. DDN might also interact with the IRTK to activate IR. To test this possibility, an UV-absorption spectra analysis was performed using recombinant IRTK. While the GST-tagged IRTK (GST-IRTK, a.a. 1011-1382) had no absorption from 200 nm to 800 nm, addition of DDN, but not its structural related analogue naptho[2,3-d]thiazole-4,9-dione-2-[(4-chlorophenyl)amino] […] Partial proteolysis analysis was also performed to confirm the DDN/IRTK interaction. Recombinant GST-tagged IRTK was incubated with either DMSO or DDN, followed by limited trypsin digestions. In DMSO treatment, GST-IRTK was digested into several smaller fragments of various molecular weights. […] Whereas a band of ˜37 kDa presented strongly in the ATP-γ-S incubated IRTK, a band of ˜30 kDa was found in the control samples but attenuated in the ATP-γ-S-treated sample.
To evaluate if 4524-E7 directly binds to the IR kinase domain, a partial proteolysis assay was performed with recombinant IRTK domain using trypsin or chymotrypsin, which was used before to characterize the interaction between IR and its small molecular ligand DAQ B1. Recombinant GST-tagged IRTK with either DMSO, 50 μM 4524-E7 or ATP-γ-S, were incubated and followed by limited trypsin or chymotrypsin digestion. Under DMSO treatment, GST-IRTK was quickly digested by both trypsin and chymotrypsin into several small fragments with various molecular weights (FIG. 10B). […] To test whether 4524-E7 selectively elevates IR kinase activities, an in vitro IR, IGFR, and EGFR kinase assays were performed using histone as the substrate.

[2] = molecular target: IR (Mus musculus, UniProt P15208); assay: IR phosphorylation and downstream signaling in mouse tissues; type: in vivo; conditions: C57BL/6J mice, 20 mg/kg oral
Method: (§1) (A) DDN reduces blood glucose in C57BL/6J mice. […] Blood glucose was monitored before and after dosing at various time points as indicated (*: P<0.05, **: P<0.01; ***: P<0.001, n=10-13, Two-way ANOVA vs vehicle). (B) DDN provokes IR phosphorylation and its downstream signaling in C57BL/6J mice. Three month-old C57BL/6J mice were starved for 12 h and then orally administrated with vehicle (0.5% methylcellulose), DDN (20 mg/kg) or 2NH2-NQ (20 mg/kg). Cell lysates were prepared from liver and muscle tissues collected at 3, 4, and 5 h after drug administration and analyzed by immunoprecipitation and immunoblotting. (C) DDN quickly activates IR phosphorylation and its downstream signaling. Three-month-old C57BL/6J mice were starved for 12 h and then injected with vehicle, 5 mg/kg DDN or 5 mg/kg 2NH2-NQ through vena cava. After 5 min, the liver was collected and analyzed by immunobloting using specific antibodies.
Three-month-old mice were starved for 12 h and then orally administrated with vehicle (0.5% methylcellulose) or DDN (5 mg/kg). Cell lysates were prepared from liver and muscle tissues collected at 1 and 2 h after drug administration and analyzed by immunoprecipitation and immunoblotting. […] Three-month-old mice were starved for 12 h and then orally administrated with vehicle (0.5% methylcellulose) or DDN (5 mg/kg). Cell lysates were prepared from liver and muscle tissues collected at 1 and 2 h after drug administration and analyzed by immunoprecipitation and immunoblotting. (C) Hypoglycemic function of DDN in db/db mice. The animals were starved for 12 h and then orally injected with vehicle (0.5% methylcellulose) or DDN (5 mg/kg). […] Blood glucose was monitored before and after drug administration at 1-hour intervals (*: P<0.05, **: P<0.01, n=5, Two-way ANOVA vs vehicle). (D) DDN improves the glucose tolerance in ob/ob mice. The animals were starved for 12 h and then orally dosed with vehicle (0.5% methylcellulose) or DDN (5 mg/kg). […] A bonus of glucose (2 gm/kg) was injected intraperitoneally 1 hour later. Blood glucose was measured at 30-min intervals (*: P<0.05, **:P<0.01, n=5, Two-way ANOVA vs vehicle control).
(§2) (A) 4524-E7 provokes IR phosphorylation in various tissues of mice. Three-month-old C57BL/6J mice were starved for 12 h and then dosed with vehicle (0.5% methylcellulose) or 4524-E7 (20 mg/kg). Cell lysates from liver, muscle, and WAT were prepared at 3, 4, and 5 h after drug administration and analyzed by immunoblotting. (B) Basal and insulin-stimulated hepatic glucose production rates were measured by hyperinsulinemic-euglycemic clamp. […] (C) Hypoglycemic effect of 4524-E7 in C57BL/6J mice. C57BL/6J mice were starved for 12 h and then orally administrated with vehicle (0.5% methylcellulose) or 4524-E7 (5 mg/kg). Blood glucose was monitored at different time points as indicated (n=8, *: P<0.05, two-way ANOVA). (D) Hypoglycemic effect in db/db mice. db/db mice were starved for 12 h and then orally injected with vehicle (0.5% methylcellulose) or 4524-E7 (5 mg/kg). Blood glucose was monitored at different time points as indicated (n=5, *: P<0.05, two-way ANOVA). (E) Glucose tolerance test in ob/ob mice. The mice were starved for 12 hours and then orally administrated with vehicle or 4524-E7 (5 mg/kg). A bonus of glucose (2 gm/kg) was injected intraperitoneally 1 hour later. Blood glucose was then measured at 30 min intervals (n=13, *: P<0.05; **: P<0.01, two-way ANOVA).
After a 12 h fasting, C57BL/6J mice were orally administrated with 20 mg/kg of compound in 0.5% methylcellulose, and sacrificed at 3 h, 4 h and 5 h following compound administration. Fat tissues were dissected quickly and frozen on dry ice. Fat lysates were prepared and analyzed by Western blotting.

[3] = tested on: C57BL/6J mice; assay: Blood glucose level test in C57BL/6J mice; type: in vivo, mouse; conditions: 20 mg/kg oral, 12 h starved
Method: as §1, §2
After a 12 h fasting, C57B5L/6J and db/db mice were bled from the tail vein for a baseline measurement with a glucometer (Accu-Chek; Roche Diagnostics, Indianapolis, Ind.). Afterward, animals were orally administered 5 mg/kg compound in 0.5% methylcellulose through a feeding needle. Blood glucose levels were measured at hourly intervals over 5 h.

[4] = molecular target: T2, IR (Homo sapiens, UniProt P06213); assay: Cell-based ELISA of IR tyrosine phosphorylation in CHO-IR cells; design: expressed in transfected cells; host or cells: CHO (CHO-IR, gift from Dr. Nicholas Webster, UCSD); conditions: 5 μM, ELISA
Method: A cell-based screening assay was developed with Chinese hamster ovary cells stably transfected with IR (CHO-IR) by using an ELISA to determine the IR tyrosine phosphorylation. […] Other 1,4-Napthoquinones that are structurally related to 4524-E7 were evaluated.
CHO-IR cells were seeded in a 96-well plate at 15,000 cells per well in […] of 0.1% FBS medium with 0.1% FBS. […] Cells were lysed, and phosphorylated receptors were captured with pY20 immobilized on ELISA plates. Bound receptors were washed, then detected using an anti-IR beta antibody, followed by an horseradish peroxidase-conjugated secondary antibody and colorimetric detection with 3,3′,5,5′-tetramethylbenzidine.
(§3) A cell-based ELISA assay was developed with an IR stably transfected Chinese Hamster Ovary (CHO-IR) cell line. […] The cell lysates were subjected to the sandwich ELISA using immobilized anti-phosphotyrosine antibody and anti-IR antibody.

[5] = molecular target: T1, GST-IRTK; assay: IR in vitro kinase assay (histone H2B phosphorylation); type: biochemical; conditions: different concentrations of compound
Method: Parental CHO cells were used as a negative control (bottom panel). The fluorescence-labeled cells were analyzed on flow cytometry. (B) DDN binds to IRTK. UV-visible spectra were scanned from 200 to 800 nm for IRTK fragment in the presence of DDN or its analogue. When DDN binds to IRTK, it elicits the absorption alteration at 560 and 602 nm. (C) DDN protects IRTK from proteolysis. GST-IRTK was subjected to limited trypsin digestion in the presence of DDN (50 μM), ATP-γ-S (5 μM) or both. The reaction mixture was resolved by SDS-PAGE, followed by silver staining (D) DDN increases IRTK activity in vitro.
Parental CHO cells were used as a negative control (Bottom panel). The fluorescence-labeled cells were analyzed on flow cytometry. (B) 4524-E7 protects IRTK from proteolysis. GST-IRTK was subjected to limited trypsin or chymotrypsin digestion in the presence of 4524-E7 (50 μM), ATPyS (5 μM) or both at 37° C. for 5 min. The reaction mixture was resolved by SDS-PAGE, followed by silver staining Cleaved fragments were asterisked. (C) 4524-E7 increases IRTK activity in vitro. Recombinant GST-IRTK, GST-IGFRTK, and GST-EGFRTK were incubated with different concentrations of 4524-E7 or 10 μM 2—NH2-NQ and the kinase activity was examined by monitoring the phosphorylation of histone H2B. (E) In vitro kinase activity of various IRTK/IGF-1R kinase hybrids. The GFP-tagged kinases were expressed in HEK293, immunoprecipitated and incubated with different concentrations of 4524-E7 as indicated. […] Expressions of the kinases were also verified (lower panel).
Recombinant GST-IRTK was incubate with 50 mM tris-HCl (pH7.4), 10 mM MgCl2, and 50 μM ATP with different concentration of compound for 15 min at 25° C. Histone H2B (0.35 μg/ml) and [γ32P]ATP (0.25 μCi/ul) were added and the samples were further incubated for 10 min. The sample was separated on a SDS-polyacrylamide gel and autoradiographed.

[6] = molecular target: T2, IR; assay: Immunoblotting of IR phosphorylation and downstream signaling in CHO-IR cells; type: cell-based; design: expressed in transfected cells; host or cells: CHO (CHO-IR, gift from Dr. Nicholas Webster, UCSD); conditions: 5 μM, 30 min
Method: The cell lysates were analyzed by immunoblotting with anti-phospho-IR antibodies, or immunoprecipitated by PY20 and analyzed using anti-IR and anti-IRS-1, respectively. […] The cell lysates were analyzed by immunoblotting with anti-pIGF-1R and anti-pEGFR. […]
as §3

T1 sequence (P06213 1011-1382): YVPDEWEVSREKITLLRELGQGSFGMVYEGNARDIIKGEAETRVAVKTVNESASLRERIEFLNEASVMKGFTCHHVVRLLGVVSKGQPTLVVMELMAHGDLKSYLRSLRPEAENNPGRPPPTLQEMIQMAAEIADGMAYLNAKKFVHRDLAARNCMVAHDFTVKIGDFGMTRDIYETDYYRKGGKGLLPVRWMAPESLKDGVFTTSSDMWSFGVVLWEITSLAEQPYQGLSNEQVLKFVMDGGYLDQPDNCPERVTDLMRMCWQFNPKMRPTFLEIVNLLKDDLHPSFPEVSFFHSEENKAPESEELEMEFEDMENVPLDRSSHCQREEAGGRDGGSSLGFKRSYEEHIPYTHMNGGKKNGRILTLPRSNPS
T2 sequence (P06213 763-1382 limits assumed): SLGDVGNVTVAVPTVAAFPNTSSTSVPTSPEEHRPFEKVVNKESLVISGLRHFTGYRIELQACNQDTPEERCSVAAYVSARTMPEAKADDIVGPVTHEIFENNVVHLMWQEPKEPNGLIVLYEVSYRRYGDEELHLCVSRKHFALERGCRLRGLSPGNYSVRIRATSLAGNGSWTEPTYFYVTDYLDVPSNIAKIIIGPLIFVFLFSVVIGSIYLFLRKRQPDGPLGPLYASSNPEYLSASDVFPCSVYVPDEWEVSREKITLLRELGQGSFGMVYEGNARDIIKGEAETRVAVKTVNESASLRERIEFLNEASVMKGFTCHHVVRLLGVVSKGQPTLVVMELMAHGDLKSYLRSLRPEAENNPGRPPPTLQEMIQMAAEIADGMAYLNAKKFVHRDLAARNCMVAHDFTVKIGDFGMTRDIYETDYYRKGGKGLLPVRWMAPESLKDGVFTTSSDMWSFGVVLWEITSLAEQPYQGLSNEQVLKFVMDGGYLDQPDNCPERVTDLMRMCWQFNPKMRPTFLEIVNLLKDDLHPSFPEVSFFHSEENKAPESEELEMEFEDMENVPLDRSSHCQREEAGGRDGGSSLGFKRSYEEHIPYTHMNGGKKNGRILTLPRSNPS
T2 sequence (P06213 28-758 limits assumed): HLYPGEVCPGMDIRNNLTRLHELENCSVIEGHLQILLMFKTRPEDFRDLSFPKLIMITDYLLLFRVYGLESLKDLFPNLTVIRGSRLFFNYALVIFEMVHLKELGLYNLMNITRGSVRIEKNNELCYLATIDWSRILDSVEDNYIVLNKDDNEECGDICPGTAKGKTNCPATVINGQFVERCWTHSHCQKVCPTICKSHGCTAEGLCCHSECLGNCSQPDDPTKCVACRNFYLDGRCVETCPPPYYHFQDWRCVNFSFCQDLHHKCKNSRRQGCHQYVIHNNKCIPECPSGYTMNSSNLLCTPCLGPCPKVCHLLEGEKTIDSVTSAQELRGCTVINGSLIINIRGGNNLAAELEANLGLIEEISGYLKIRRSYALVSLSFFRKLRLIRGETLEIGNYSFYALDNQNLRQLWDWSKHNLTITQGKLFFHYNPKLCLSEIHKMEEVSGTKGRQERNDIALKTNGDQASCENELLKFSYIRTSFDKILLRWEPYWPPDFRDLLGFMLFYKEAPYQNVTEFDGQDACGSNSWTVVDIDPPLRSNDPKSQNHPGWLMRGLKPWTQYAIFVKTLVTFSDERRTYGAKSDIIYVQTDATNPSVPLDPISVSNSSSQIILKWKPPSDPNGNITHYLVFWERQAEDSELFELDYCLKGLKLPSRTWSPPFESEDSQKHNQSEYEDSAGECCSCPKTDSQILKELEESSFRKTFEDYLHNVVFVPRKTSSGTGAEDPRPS
IR (Mus musculus, UniProt P15208), sequence (P15208 28-1372): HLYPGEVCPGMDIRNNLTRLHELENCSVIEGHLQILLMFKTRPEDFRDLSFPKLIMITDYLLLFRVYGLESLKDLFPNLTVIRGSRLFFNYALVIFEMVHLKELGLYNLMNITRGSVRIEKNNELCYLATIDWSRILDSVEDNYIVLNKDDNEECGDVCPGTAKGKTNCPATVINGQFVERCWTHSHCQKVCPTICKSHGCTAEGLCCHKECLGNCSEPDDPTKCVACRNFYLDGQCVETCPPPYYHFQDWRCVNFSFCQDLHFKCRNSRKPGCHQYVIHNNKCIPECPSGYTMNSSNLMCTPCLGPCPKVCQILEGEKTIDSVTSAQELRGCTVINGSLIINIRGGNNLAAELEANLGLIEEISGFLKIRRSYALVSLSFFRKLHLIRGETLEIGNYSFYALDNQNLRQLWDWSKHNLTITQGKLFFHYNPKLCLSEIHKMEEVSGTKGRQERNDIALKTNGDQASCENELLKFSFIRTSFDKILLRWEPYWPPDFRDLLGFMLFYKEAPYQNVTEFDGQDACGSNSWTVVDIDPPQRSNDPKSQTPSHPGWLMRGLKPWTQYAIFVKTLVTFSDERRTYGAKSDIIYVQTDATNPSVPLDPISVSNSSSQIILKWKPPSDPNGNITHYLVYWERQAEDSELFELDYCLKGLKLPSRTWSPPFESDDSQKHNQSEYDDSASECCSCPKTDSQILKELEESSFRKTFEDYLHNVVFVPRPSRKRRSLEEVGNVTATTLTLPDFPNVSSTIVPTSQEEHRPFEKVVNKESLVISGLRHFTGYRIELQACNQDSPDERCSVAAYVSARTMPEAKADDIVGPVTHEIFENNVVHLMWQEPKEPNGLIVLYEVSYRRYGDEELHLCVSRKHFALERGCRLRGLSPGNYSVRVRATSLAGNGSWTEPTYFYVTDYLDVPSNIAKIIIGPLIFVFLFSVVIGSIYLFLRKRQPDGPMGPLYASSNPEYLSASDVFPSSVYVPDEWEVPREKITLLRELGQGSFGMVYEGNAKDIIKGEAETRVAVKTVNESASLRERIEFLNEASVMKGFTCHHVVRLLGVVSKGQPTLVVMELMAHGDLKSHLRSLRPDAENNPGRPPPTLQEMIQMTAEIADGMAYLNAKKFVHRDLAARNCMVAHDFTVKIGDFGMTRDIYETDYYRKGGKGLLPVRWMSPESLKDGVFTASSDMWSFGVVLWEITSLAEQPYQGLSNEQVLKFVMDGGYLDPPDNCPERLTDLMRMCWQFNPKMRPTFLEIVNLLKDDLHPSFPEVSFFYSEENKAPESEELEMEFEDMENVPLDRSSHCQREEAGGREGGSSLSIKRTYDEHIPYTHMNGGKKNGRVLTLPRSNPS

Structure (SMILES): Nc1ncnc2c1ncn2[C@@H]1O[C@H](COP(=O)(O)OP(=O)(O)OP(O)(O)=S)[C@@H](O)[C@H]1O [ATP-γ-S, reference compound]
protection of IRTK from proteolysis [1]: altered the proteolysis pattern; also recorded: digestion pattern was altered

Structure (SMILES): NC1=CC(=O)c2ccccc2C1=O [2NH2-NQ, 2-amino-1,4-naphthoquinone, reference compound]
IR and IRS-1 tyrosine phosphorylation in liver and muscle [2]: Neither IR nor IRS phosphorylations were increased
blood glucose as compared to vehicle control [3]: had no effect
IR phosphorylation ([4]; 15 min, CHO-IR cells): not active
IRTK kinase activity (histone H2B phosphorylation) [5]: inactive analogue

IR tyrosine phosphorylation [6]: triggered IR tyrosine phosphorylation
IR phosphorylation, 4524-E7 derivatives ([4]; 30 min, compared to the parental compound): improved activity
Structure (SMILES): O=C1c2ccccc2C(=O)c2sc(Nc3ccc(Cl)cc3Cl)nc21 [compound 7, 2-((2,4-dichlorophenyl)amino)naphtho[2,3-d]thiazole-4,9-dione]
